Reference: ChEMBL document CHEMBL4673406, “Discovery and Preclinical Evaluation of BMS-986242, a Potent, Selective Inhibitor of Indoleamine-2,3-dioxygenase 1” (ACS Med Chem Lett, 2021)

Legend:
[1] = molecular target: Acetylcholine receptor subunit alpha (Homo sapiens, UniProt P02708); test: Inhibition of alpha1 nAChR (unknown origin)
[2] = Half life in cynomolgus monkey at 1 mg/kg, iv; format: ADME, organism-based, Macaca fascicularis; settings: in vivo
[3] = Half life in dog at 1 mg/kg, iv; format: ADME, organism-based, Canis lupus familiaris; settings: in vivo
[4] = molecular target: Indoleamine 2,3-dioxygenase 1 (Mus musculus) (UniProt P28776); test: In vivo inhibition of IDO1 in nu/nu mouse xenografted with human SK-OV-3 cells assessed as reduction in kynurenine level at 30 mg/kg, po qd by HPLC-MS/MS analysis relative to control; format: functional, organism-based
Indoleamine 2,3-dioxygenase 1 (Mus musculus), sequence (P28776 whole entry, looked up): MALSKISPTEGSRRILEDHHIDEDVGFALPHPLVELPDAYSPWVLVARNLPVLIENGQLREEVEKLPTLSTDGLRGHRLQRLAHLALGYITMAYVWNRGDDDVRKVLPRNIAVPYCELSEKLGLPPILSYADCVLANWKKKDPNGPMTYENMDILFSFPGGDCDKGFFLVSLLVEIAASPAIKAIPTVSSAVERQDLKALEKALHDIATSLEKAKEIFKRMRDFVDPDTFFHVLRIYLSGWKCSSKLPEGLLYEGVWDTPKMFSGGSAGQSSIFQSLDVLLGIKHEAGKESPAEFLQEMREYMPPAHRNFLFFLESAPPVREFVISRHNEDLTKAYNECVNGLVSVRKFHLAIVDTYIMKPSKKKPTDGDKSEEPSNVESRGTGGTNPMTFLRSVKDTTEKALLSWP

[5] = molecular target: Indoleamine 2,3-dioxygenase 1 (Mus musculus) (UniProt P28776); test: In vivo inhibition of IDO1 in nu/nu mouse xenografted with human SK-OV-3 cells assessed as reduction in kynurenine level at 10 mg/kg, po qd by HPLC-MS/MS analysis relative to control; format: functional, organism-based
[6] = AUC (0 to 24 hrs) in nu/nu mouse xenografted with human SK-OV-3 cells measured in tumor at 30 mg/kg, po qd by uHPLC-MS/MS analysis; format: ADME, organism-based; design: time < 24 hr, route oral, dose 30 mg/kg
[7] = AUC (0 to 24 hrs) in nu/nu mouse xenografted with human SK-OV-3 cells measured in tumor at 10 mg/kg, po qd by uHPLC-MS/MS analysis; format: ADME, organism-based; design: time < 24 hr, route oral, dose 10 mg/kg
[8] = Toxicity in rat assessed as effect on cardiovascular system by telemetry; settings: in vivo
[9] = AUC (0 to 24 hrs) in nu/nu mouse xenografted with human SK-OV-3 cells measured in tumor at 3 mg/kg, po qd by uHPLC-MS/MS analysis; format: ADME, organism-based; design: time < 24 hr, route oral, dose 3 mg/kg
[10] = AUC in cynomolgus monkey at 5 mg/kg, po; format: ADME, organism-based, Macaca fascicularis; design: dose 5 mg/kg; settings: in vivo
[11] = Volume of distribution at steady state in cynomolgus monkey at 1 mg/kg, iv; format: ADME, organism-based, Macaca fascicularis; settings: in vivo
[12] = AUC in dog at 1 mg/kg, iv; format: ADME, organism-based, Canis lupus familiaris; design: dose 1 mg/kg; settings: in vivo
[13] = AUC in dog at 5 mg/kg, po; format: ADME, organism-based, Canis lupus familiaris; design: dose 5 mg/kg; settings: in vivo
[14] = Volume of distribution at steady state in dog at 1 mg/kg, iv; format: ADME, organism-based, Canis lupus familiaris; settings: in vivo
[15] = Oral bioavailability in rat at 2 mg/kg; format: ADME, organism-based; settings: in vivo
[16] = AUC in rat at 0.5 mg/kg, iv; format: ADME, organism-based; design: dose 0.5 mg/kg; settings: in vivo
[17] = AUC in rat at 6 mg/kg, po; format: ADME, organism-based; design: dose 6 mg/kg; settings: in vivo
[18] = Volume of distribution at steady state in rat at 0.5 mg/kg, iv; format: ADME, organism-based; settings: in vivo
[19] = AUC in mouse at 6 mg/kg, po; format: ADME, organism-based; design: dose 6 mg/kg; settings: in vivo
[20] = Oral bioavailability in mouse at 6 mg/kg; format: ADME, organism-based; settings: in vivo
[21] = AUC in mouse at 0.5 mg/kg, iv; format: ADME, organism-based; design: dose 0.5 mg/kg; settings: in vivo
[22] = Volume of distribution at steady state in mouse at 0.5 mg/kg, iv; format: ADME, organism-based; settings: in vivo
[23] = molecular target: Neuronal acetylcholine receptor subunit alpha-7 (Homo sapiens, UniProt P36544); test: Inhibition of alpha7 nAChR (unknown origin)
Neuronal acetylcholine receptor subunit alpha-7, sequence (P36544 whole entry): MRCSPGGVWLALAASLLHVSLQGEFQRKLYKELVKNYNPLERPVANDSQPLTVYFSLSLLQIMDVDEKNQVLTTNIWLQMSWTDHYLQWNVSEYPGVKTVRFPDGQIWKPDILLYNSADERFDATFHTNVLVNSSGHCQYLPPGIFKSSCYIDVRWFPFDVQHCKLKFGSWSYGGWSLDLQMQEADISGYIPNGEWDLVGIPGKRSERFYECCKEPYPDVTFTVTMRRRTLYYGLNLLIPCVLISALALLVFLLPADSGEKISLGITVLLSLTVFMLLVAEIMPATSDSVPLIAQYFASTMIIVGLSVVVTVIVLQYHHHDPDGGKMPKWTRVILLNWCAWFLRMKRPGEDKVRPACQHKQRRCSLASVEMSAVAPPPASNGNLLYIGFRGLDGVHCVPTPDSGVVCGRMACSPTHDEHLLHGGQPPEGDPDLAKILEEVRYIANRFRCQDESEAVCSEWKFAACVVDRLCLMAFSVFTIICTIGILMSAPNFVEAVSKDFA

[24] = molecular target: alpha7 nAChR (Homo sapiens, UniProt P36544); test: Inhibition of alpha7 nAChR (unknown origin) relative to control; settings: read-out: Imax
alpha7 nAChR, sequence (P36544 whole entry): as above

[25] = Protein binding in mouse plasma assessed as free fraction; format: ADME, cell-free
[26] = molecular target: T1, Nuclear receptor subfamily 1 group I member 2 (Homo sapiens, UniProt O75469); test: Transactivation of PXR (unknown origin); format: ADME
T1 sequence (O75469 whole entry): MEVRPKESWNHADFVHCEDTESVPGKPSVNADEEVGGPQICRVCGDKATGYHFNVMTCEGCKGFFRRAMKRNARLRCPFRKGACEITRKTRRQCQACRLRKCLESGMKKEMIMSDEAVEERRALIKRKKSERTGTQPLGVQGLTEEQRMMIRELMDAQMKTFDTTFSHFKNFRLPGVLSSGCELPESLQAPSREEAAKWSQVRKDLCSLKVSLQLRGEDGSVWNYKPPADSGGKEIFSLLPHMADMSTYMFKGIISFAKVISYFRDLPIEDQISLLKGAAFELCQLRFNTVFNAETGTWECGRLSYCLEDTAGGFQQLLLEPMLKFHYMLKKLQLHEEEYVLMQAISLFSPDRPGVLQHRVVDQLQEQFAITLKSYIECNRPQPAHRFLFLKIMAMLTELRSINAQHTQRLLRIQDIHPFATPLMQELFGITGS

[27] = Protein binding in human plasma assessed as free fraction; format: ADME, cell-free
[28] = species: Homo sapiens; test: Inhibition of sodium channel (unknown origin) at 10 uM and 1 to 4 Hz by patch clamp method relative to control
[29] = molecular target: hERG (Homo sapiens, UniProt Q12809); test: Inhibition of human ERG at 10 uM by patch clamp method relative to control
hERG, sequence (Q12809 whole entry): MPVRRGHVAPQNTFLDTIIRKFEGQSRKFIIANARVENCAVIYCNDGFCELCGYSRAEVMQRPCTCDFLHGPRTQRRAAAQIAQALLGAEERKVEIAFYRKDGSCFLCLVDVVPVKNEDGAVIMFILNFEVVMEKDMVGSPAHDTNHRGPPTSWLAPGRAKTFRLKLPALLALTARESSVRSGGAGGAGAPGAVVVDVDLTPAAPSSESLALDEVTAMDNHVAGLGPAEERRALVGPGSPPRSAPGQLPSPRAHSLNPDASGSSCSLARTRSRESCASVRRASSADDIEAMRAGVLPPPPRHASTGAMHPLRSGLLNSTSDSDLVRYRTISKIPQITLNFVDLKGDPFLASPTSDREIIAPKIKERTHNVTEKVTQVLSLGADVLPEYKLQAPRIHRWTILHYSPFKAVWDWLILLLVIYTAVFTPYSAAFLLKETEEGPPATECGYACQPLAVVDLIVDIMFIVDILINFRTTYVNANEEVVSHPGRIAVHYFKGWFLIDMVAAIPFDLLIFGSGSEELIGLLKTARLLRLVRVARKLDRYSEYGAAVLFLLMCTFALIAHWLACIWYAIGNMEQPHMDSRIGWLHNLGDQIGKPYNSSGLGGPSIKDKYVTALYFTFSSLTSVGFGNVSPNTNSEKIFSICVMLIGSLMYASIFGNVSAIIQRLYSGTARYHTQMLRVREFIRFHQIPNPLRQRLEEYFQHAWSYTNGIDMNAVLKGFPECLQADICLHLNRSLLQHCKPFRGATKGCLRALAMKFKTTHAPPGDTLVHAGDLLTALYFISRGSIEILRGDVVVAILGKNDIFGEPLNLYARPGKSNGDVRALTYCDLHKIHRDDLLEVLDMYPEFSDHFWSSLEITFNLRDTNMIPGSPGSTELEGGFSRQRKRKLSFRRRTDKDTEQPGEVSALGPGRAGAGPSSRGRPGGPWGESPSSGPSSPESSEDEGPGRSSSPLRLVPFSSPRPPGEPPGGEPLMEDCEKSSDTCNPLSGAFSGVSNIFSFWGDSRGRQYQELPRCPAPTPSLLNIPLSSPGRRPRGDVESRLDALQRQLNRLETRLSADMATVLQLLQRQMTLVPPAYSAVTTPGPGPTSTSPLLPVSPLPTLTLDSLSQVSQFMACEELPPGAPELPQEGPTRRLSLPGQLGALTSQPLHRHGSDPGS

[30] = molecular target: Cytochrome P450 2C9 (Homo sapiens, UniProt P11712); test: Inhibition of human CYP2C9; format: ADME
Cytochrome P450 2C9, sequence (P11712 whole entry): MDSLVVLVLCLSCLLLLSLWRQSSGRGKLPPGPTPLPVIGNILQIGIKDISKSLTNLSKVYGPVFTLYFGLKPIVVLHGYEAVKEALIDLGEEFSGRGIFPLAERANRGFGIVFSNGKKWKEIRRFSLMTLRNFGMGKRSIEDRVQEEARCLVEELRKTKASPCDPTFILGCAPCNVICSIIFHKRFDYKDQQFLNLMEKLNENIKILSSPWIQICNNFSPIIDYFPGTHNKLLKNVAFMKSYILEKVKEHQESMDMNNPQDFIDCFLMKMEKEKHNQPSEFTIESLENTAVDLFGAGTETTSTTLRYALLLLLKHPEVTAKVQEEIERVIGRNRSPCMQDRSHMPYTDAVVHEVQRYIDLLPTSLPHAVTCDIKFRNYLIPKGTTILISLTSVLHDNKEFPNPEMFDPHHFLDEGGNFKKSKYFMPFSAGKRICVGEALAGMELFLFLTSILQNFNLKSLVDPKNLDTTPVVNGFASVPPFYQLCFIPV

[31] = Permeability of the compound at pH 7.4 by PAMPA; format: ADME; settings: read-out: permeability
[32] = Metabolic stability in dog hepatocytes assessed as UGT-mediated compound glucuronidation by measuring half life; format: ADME, cell-based, Canis lupus familiaris, Hepatocyte
[33] = Metabolic stability in rat hepatocytes assessed as UGT-mediated compound glucuronidation by measuring half life; format: ADME, cell-based, Hepatocyte
[34] = Metabolic stability in mouse hepatocytes assessed as UGT-mediated compound glucuronidation by measuring half life; format: ADME, cell-based, Hepatocyte
[35] = Metabolic stability in cynomolgus monkey hepatocytes assessed as CYP450-mediated compound metabolism by measuring half life; format: ADME, cell-based, Macaca fascicularis, Hepatocyte
[36] = Metabolic stability in dog hepatocytes assessed as CYP450-mediated compound metabolism by measuring half life; format: ADME, cell-based, Canis lupus familiaris, Hepatocyte
[37] = Metabolic stability in rat hepatocytes assessed as CYP450-mediated compound metabolism by measuring half life; format: ADME, cell-based, Hepatocyte
[38] = Metabolic stability in mouse hepatocytes assessed as CYP450-mediated compound metabolism by measuring half life; format: ADME, cell-based, Hepatocyte
[39] = molecular target: Cytochrome P450 (Homo sapiens, UniProt P04798+P05177+P05181+P08684+P10632+P10635+P11509+P11712+P13584+P20813+P20815+P20853+P24462+P24903+P33260+P33261+P51589+P78329+P98187+Q02928+Q08477+Q16678+Q16696+Q5TCH4+Q6VVX0+Q7Z449+Q8TAV3+Q96SQ9+Q9HB55); test: Metabolic stability in human hepatocytes assessed as CYP450-mediated compound metabolism by measuring half life; format: ADME, cell-based, Hepatocyte
[40] = molecular target: Indoleamine 2,3-dioxygenase 1 (Homo sapiens, UniProt P14902); test: Inhibition of IDO1 in IFNgamma/LPS-stimulated human whole blood preincubated for 4 hrs followed by IFNgamma/LPS stimulation and incubated for 18 hrs by Rapid-fire mass spectrometry analysis; format: tissue-based
Indoleamine 2,3-dioxygenase 1 (Homo sapiens, UniProt P14902), sequence (P14902 whole entry): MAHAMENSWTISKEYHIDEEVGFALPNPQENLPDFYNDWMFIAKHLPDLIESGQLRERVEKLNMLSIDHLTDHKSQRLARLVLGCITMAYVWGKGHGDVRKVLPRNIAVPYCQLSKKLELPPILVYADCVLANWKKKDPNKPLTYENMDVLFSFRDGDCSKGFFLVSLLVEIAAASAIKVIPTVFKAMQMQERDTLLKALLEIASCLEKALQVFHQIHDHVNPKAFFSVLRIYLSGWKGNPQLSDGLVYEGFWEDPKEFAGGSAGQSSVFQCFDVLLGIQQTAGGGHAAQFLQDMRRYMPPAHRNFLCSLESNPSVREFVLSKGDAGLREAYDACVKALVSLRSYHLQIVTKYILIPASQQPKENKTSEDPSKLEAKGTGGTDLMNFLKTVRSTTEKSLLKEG

[41] = molecular target: Indoleamine 2,3-dioxygenase 1 (Mus musculus, UniProt P28776); test: Inhibition of IDO1 in IFNgamma-stimulated mouse M109 cells preincubated for 2 hrs followed by IFNgamma stimulation and measured after 18 hrs by; format: cell-based
Indoleamine 2,3-dioxygenase 1 (Mus musculus, UniProt P28776), sequence (P28776 whole entry): as the sequence (P28776 whole entry, looked up) above

[42] = Half life in mouse at 0.5 mg/kg, iv; format: ADME, organism-based; settings: in vivo
[43] = Half life in rat at 0.5 mg/kg, iv; format: ADME, organism-based; settings: in vivo
[44] = in vitro; settings: human, liver microsomes
Description: Metabolic stability in human liver microsomes assessed as parent compound remaining at 0.5 uM measured after 10 mins

Acetylcholine receptor subunit alpha, sequence (P02708 whole entry): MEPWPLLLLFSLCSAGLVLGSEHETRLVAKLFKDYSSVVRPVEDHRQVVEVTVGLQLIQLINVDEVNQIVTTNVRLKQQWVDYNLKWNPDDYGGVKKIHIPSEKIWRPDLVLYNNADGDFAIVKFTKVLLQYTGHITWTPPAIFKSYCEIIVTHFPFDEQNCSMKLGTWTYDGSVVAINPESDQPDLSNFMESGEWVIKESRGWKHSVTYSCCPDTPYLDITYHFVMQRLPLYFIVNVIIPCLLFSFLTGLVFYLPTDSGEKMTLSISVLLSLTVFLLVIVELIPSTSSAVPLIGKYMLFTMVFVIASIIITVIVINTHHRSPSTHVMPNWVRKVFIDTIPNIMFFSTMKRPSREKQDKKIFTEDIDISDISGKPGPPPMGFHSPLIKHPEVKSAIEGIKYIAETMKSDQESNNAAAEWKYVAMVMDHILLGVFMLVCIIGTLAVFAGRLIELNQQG

C[C@@H](NC(=O)c1ccc(Cl)cc1)[C@H]1CC[C@@H](c2ccnc3ccc(F)cc32)CC1
IC50 [1]: 12.3 µM | t1/2 [2]: 2 min | t1/2 [3]: 19 min | inhibition [4]: 59% | inhibition [5]: 58% | AUC at 24 h [6]: 61 µM·h | AUC at 24 h [7]: 21.1 µM·h | Activity [8]: Non-Toxic | AUC at 24 h [9]: 9.6 µM·h | AUC [10]: 7.1 µM·h | Vdss [11]: 1 L/kg | AUC [12]: 8.7 µM·h | AUC [13]: 17.4 µM·h | Vdss [14]: 3.87 L/kg | bioavailability [15]: 127% | AUC [16]: 5.6 µM·h | AUC [17]: 28.2 µM·h | Vdss [18]: 0.97 L/kg | AUC [19]: 12.6 µM·h | F [20]: 152% | AUC [21]: 0.69 µM·h | Vdss [22]: 17 L/kg | IC50 [23]: > 6 µM | Emax [24]: 20% | Fu [25]: < 0.2% | EC50 [26]: > 50 µM | Fu [27]: < 0.3% | inhibition [28]: < 20% | inhibition at 10 µM [29]: 87% | IC50 [30]: 740 nM | Papp [31]: 283 ×10⁻⁶ cm/s | half-life [32]: 33 min | half-life [33]: 93 min | half-life [34]: > 120 min | half-life [35]: 2 min | half-life [36]: 10 min | half-life [37]: 10 min | half-life [38]: 4 min | half-life [39]: 14 min | IC50 [40]: 25 nM | IC50 [41]: 2 nM | t1/2 [42]: 8 min | t1/2 [43]: 4 min | remaining at 10 min, 0.5 µM [44]: 54%
